Legend:
[1] = Bioavailability in rat; assay type: ADME, organism-based; conditions: in vivo
[2] = tested on: Human immunodeficiency virus 1; experiment: Antiinfective activity in HeLa cells against HIV-1(BAL) in the absence of 50% of human serum; assay type: functional; conditions: Human immunodeficiency virus 1, HeLa
[3] = tested on: Human immunodeficiency virus 1; experiment: Antiinfective activity in HeLa cells against HIV-1(BAL) in the presence of 50% of human serum; assay type: functional; conditions: Human immunodeficiency virus 1, HeLa
[4] = target: C-C chemokine receptor type 5 (Homo sapiens, UniProt P51681); experiment: Displacement of [125I]-MIP-1 alpha from human C-C chemokine receptor type 5 expressed on CHO cell membranes
[5] = Half life in rat; assay type: ADME; conditions: in vivo
[6] = Plasma clearance in rat; assay type: ADME, organism-based; conditions: read-out: Clp
[7] = Oral bioavailability in rat; assay type: ADME, organism-based; conditions: in vivo
[8] = target: Voltage-gated L-type calcium channel (Homo sapiens, UniProt Q13936+Q13698+Q01668+O60840); experiment: Inhibitory concentration against L-type [Ca2+] channel; assay type: protein assay
[9] = Inhibitory concentration against PBM cells; assay type: functional; conditions: PBMC
[10] = target: Voltage-gated inwardly rectifying potassium channel KCNH2 (Homo sapiens, UniProt Q12809); experiment: Inhibitory activity against human Potassium channel HERG
Chain of Voltage-gated inwardly rectifying potassium channel KCNH2 (Q12809 whole entry): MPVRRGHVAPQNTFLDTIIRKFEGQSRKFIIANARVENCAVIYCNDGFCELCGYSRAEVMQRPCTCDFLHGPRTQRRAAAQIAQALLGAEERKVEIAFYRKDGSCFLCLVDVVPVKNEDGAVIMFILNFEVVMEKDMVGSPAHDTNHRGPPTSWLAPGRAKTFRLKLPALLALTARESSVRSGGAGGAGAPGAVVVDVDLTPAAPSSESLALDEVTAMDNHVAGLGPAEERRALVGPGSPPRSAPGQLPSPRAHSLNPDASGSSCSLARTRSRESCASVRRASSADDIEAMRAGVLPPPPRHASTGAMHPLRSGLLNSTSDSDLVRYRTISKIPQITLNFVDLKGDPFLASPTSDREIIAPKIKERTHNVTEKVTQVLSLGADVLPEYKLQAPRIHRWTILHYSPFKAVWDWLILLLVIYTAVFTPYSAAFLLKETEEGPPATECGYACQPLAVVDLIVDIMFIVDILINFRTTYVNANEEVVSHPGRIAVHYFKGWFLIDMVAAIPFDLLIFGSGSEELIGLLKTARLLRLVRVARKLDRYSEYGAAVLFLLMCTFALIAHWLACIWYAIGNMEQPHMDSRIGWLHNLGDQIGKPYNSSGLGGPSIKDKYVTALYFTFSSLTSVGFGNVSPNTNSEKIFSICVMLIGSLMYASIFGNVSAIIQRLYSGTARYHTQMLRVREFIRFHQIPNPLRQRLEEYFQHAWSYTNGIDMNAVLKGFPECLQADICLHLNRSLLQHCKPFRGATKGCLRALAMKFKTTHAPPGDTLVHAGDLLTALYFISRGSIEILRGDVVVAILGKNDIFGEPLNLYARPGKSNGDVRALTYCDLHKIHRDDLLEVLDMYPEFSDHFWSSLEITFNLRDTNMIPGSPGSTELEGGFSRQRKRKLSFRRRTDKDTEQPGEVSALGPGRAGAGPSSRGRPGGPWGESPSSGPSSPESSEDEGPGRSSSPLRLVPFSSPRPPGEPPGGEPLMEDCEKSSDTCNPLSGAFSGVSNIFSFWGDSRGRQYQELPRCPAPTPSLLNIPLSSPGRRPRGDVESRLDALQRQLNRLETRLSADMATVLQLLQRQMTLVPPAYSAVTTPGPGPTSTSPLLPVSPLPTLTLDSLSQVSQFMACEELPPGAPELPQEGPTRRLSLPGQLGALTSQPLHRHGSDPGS

Chain of C-C chemokine receptor type 5 (P51681 whole entry): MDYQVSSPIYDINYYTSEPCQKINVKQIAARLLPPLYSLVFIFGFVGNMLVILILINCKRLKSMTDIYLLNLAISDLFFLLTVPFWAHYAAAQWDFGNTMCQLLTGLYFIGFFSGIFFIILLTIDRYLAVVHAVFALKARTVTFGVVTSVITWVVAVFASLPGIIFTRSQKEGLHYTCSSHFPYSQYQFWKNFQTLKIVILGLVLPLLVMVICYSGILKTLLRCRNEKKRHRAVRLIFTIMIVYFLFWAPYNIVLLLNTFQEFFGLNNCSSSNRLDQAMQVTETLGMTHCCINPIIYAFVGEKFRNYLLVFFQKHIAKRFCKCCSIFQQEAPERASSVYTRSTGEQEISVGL

SMILES: O=C(O)[C@@H](CC1CCC1)N1C[C@H](CN2CCC(c3cnc4ccc(F)cn34)CC2)[C@@H](c2cccc(F)c2)C1
- bioavailability [1]: 38%
- IC90 [2]: 3.7 nM
- IC90 [3]: 300 nM
- IC50 [4]: 0.3 nM
- half-life [5]: 48 min
- clearance [6]: 19 mL/min/kg

SMILES: O=C(O)[C@@H](C1CCCCC1)N1C[C@H](CN2CCC(CCn3cnc4ccccc43)CC2)[C@@H](c2ccccc2)C1
- IC90 [2]: 100 nM
- IC90 [3]: > 300 nM
- IC50 [4]: 2.6 nM

SMILES: Cc1cc(C)n2ncc(C3CCN(C[C@H]4CN([C@H](CC5CCC5)C(=O)O)C[C@@H]4c4cccc(F)c4)CC3)c2n1
- IC90 [2]: > 300 nM
- IC90 [3]: > 300 nM
- IC50 [4]: 7 nM

SMILES: O=C(O)[C@@H](CC1CCC1)N1C[C@H](CN2CCC(c3cnc4ccc([N+](=O)[O-])cn34)CC2)[C@@H](c2cccc(F)c2)C1
- bioavailability [1]: 61%
- IC90 [2]: 100 nM
- IC90 [3]: 300 nM
- IC50 [4]: 0.6 nM
- half-life [5]: 12 min
- clearance [6]: 120 mL/min/kg

SMILES: O=C(O)[C@@H](CC1CCC1)N1C[C@H](CN2CCC(c3ncc4ccccn34)CC2)[C@@H](c2cccc(F)c2)C1
- IC90 [2]: > 300 nM
- IC90 [3]: > 300 nM
- IC50 [4]: 13 nM

SMILES: O=C(O)[C@@H](C1CCCCC1)N1C[C@H](CN2CCC(n3cnc4ccccc43)CC2)[C@@H](c2ccccc2)C1
- IC90 [2]: 11 nM
- IC90 [3]: 100 nM
- IC50 [4]: 2.5 nM
- bioavailability [7]: < 2%

SMILES: O=C(O)[C@@H](CC1CCC1)N1C[C@H](CN2CCC(c3cnc4c(Cl)cc(Cl)cn34)CC2)[C@@H](c2cccc(F)c2)C1
- bioavailability [1]: 39%
- IC90 [2]: 33 nM
- IC90 [3]: 300 nM
- IC50 [4]: 0.5 nM
- half-life [5]: 24 min
- clearance [6]: 20 mL/min/kg

SMILES: O=C(O)[C@@H](C1CCCCC1)N1C[C@H](CN2CCC(n3cnc4ncccc43)CC2)[C@@H](c2ccccc2)C1
- IC50 [4]: 23 nM

SMILES: O=C(O)[C@@H](CC1CCC1)N1C[C@H](CN2CCC(c3cnc4ccc(Cl)cn34)CC2)[C@@H](c2cccc(F)c2)C1
- bioavailability [1]: 26%
- IC90 [2]: 1.2 nM
- IC90 [3]: 100 nM
- IC50 [4]: 0.89 nM
- half-life [5]: 42 min
- clearance [6]: 16 mL/min/kg
- IC50 [8]: > 10000 nM

SMILES: O=C(O)[C@@H](CC1CCC1)N1C[C@H](CN2CCC(c3cnc4cnccn34)CC2)[C@@H](c2cccc(F)c2)C1
- IC90 [2]: 11 nM
- IC90 [3]: 100 nM
- IC50 [4]: 1 nM

SMILES: O=C(O)[C@@H](CC1CCC1)N1C[C@H](CN2CCC(CCCc3ccccc3)CC2)[C@@H](c2ccccc2)C1
- IC95 [9]: < 8 nM

SMILES: O=C(O)[C@@H](CC1CCC1)N1C[C@H](CN2CCC(c3cnc4ncccn34)CC2)[C@@H](c2cccc(F)c2)C1
- IC90 [2]: 33 nM
- IC90 [3]: 100 nM
- IC50 [4]: 3.5 nM

SMILES: O=C(O)[C@@H](CC1CCC1)N1C[C@H](CN2CCC(c3cnc4ccc(C(F)(F)F)cn34)CC2)[C@@H](c2cccc(F)c2)C1
- bioavailability [1]: 26%
- IC50 [10]: < 10000 nM
- IC90 [2]: 11 nM
- IC90 [3]: 300 nM
- IC50 [4]: 0.82 nM
- half-life [5]: 48 min
- clearance [6]: 18 mL/min/kg
- IC50 [8]: > 10000 nM

SMILES: O=C(O)[C@@H](CC1CCC1)N1C[C@H](CN2CCC(c3cn4ccccc4n3)CC2)[C@@H](c2cccc(F)c2)C1
- IC50 [4]: 65 nM

SMILES: O=C(O)[C@@H](C1CCCCC1)N1C[C@H](CN2CCC(CCCn3cnc4ccccc43)CC2)[C@@H](c2ccccc2)C1
- IC90 [2]: 1.2 nM
- IC90 [3]: 33 nM
- IC50 [4]: 0.84 nM
- bioavailability [7]: < 2%

SMILES: O=C(O)[C@@H](CC1CCC1)N1C[C@H](CN2CCC(c3cnc4cccnn34)CC2)[C@@H](c2cccc(F)c2)C1
- IC90 [2]: 11 nM
- IC90 [3]: 300 nM
- IC50 [4]: 3 nM

SMILES: O=C(O)[C@@H](C1CCCCC1)N1C[C@H](CN2CCC(c3c[nH]c4ccccc34)CC2)[C@@H](c2ccccc2)C1
- IC50 [4]: 10 nM

SMILES: O=C(O)[C@@H](CC1CCC1)N1C[C@H](CN2CCC(c3cnc4ccc(-c5ccccc5)cn34)CC2)[C@@H](c2cccc(F)c2)C1
- bioavailability [1]: 19%
- IC90 [2]: 11 nM
- IC90 [3]: 300 nM
- IC50 [4]: 0.8 nM
- half-life [5]: 96 min
- clearance [6]: 83 mL/min/kg

SMILES: O=C(O)[C@@H](CC1CCC1)N1C[C@H](CN2CCC(c3cn4cccnc4n3)CC2)[C@@H](c2ccccc2)C1
- IC50 [4]: 200 nM

SMILES: O=C(O)[C@@H](C1CCCCC1)N1C[C@H](CN2CCC(n3cnc4ccccc4c3=O)CC2)[C@@H](c2ccccc2)C1
- IC50 [4]: 12 nM

SMILES: O=C(O)[C@@H](C1CCCCC1)N1C[C@H](CN2CCC(n3cnc4cccnc43)CC2)[C@@H](c2ccccc2)C1
- IC90 [2]: 33 nM
- IC50 [4]: 2.8 nM

SMILES: O=C(O)[C@@H](C1CCCCC1)N1C[C@H](CN2CCC(n3c(=O)[nH]c4ccccc43)CC2)[C@@H](c2ccccc2)C1
- IC50 [4]: 63 nM

SMILES: CCc1ccn2c(C3CCN(C[C@H]4CN([C@H](CC5CCC5)C(=O)O)C[C@@H]4c4cccc(F)c4)CC3)cnc2c1
- bioavailability [1]: 11%
- IC90 [2]: 0.13 nM
- IC90 [3]: 11 nM
- IC50 [4]: 0.35 nM
- half-life [5]: 150 min
- clearance [6]: 67 mL/min/kg

SMILES: O=C(O)[C@@H](C1CCCCC1)N1C[C@H](CN2CCC(Cn3cnc4ccccc43)CC2)[C@@H](c2ccccc2)C1
- IC90 [2]: 100 nM
- IC90 [3]: > 300 nM
- IC50 [4]: 6.3 nM

SMILES: O=C(O)[C@@H](CC1CCC1)N1C[C@H](CN2CCC(c3cn4ccncc4n3)CC2)[C@@H](c2cccc(F)c2)C1
- IC90 [2]: 300 nM
- IC90 [3]: 300 nM
- IC50 [4]: 29 nM

SMILES: O=C(O)[C@@H](CC1CCC1)N1C[C@H](CN2CCC(c3cnc4ccccn34)CC2)[C@@H](c2cccc(F)c2)C1
- bioavailability [1]: 4%
- IC90 [2]: 1.2 nM
- IC90 [3]: 33 nM
- IC50 [4]: 0.42 nM
- half-life [5]: 126 min
- clearance [6]: 38 mL/min/kg
- IC50 [8]: > 10000 nM

SMILES: O=C(O)[C@@H](CC1CCC1)N1C[C@H](CN2CCC(c3nnc4ccccn34)CC2)[C@@H](c2ccccc2)C1
- IC90 [2]: 100 nM
- IC90 [3]: > 300 nM
- IC50 [4]: 12 nM

SMILES: O=C(O)[C@@H](C1CCCCC1)N1C[C@H](CN2CCC(n3nnc4ccccc43)CC2)[C@@H](c2ccccc2)C1
- IC90 [2]: 100 nM
- IC50 [4]: 8.2 nM

SMILES: O=C(O)[C@@H](C1CCCCC1)N1C[C@H](CN2CCC(n3cnc(=O)c4ccccc43)CC2)[C@@H](c2ccccc2)C1
- IC50 [4]: 100 nM

Reference: ChEMBL document CHEMBL1143543, “Potent 1,3,4-trisubstituted pyrrolidine CCR5 receptor antagonists: effects of fused heterocycles on antiviral activity and pharmacokinetic properties” (Bioorg Med Chem Lett, 2005)
